21 compounds from US10131664B2 (Celgene Quanticel Research, Inc., priority 2013, dated 2018) can be followed below.

Some results are limits rather than exact numbers.

One experiment has as its system THP-1 (AML) cells. In words: LSD1 CD11b cellular assay (flow cytometry). It counts as cell-based. Particulars: Homo sapiens, 96 h; CD11b expression in THP-1 (AML) cells, flow cytometry, 4 days incubation; read-out: Cellular IC50. The method in brief:
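THP-1 AML cells treated with serially diluted compound (0.2% DMSO final) for 4 days at 37 °C, 5% CO2. CD11b expression measured by flow cytometry with DAPI staining; IC50 derived from percent CD11b-positive cells versus inhibitor concentration.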
A general note: In flow cytometry, cells or beads pass a laser one at a time.

The next experiment deals with full-length human LSD1 (Homo sapiens (Human), UniProt O60341). In words: In vitro enzyme inhibition assay LSD-1 (TR-FRET). It counts as biochemical. Particulars: TR-FRET, 0.1 nM LSD1, 50 nM H3K4me1-biotin peptide, 2 μM FAD, pH7.3; read-out: LSD1 IC50. Here is the method:
This assay determines the ability of a test compound to inhibit LSD1 demethylase activity.
The enzymatic assay of LSD1 activity is based on Time Resolved-Fluorescence Resonance Energy Transfer (TR-FRET) detection.
The ability of the compounds disclosed herein to inhibit LSD1 activity was quantified and the respective IC50 value was determined. Table 5 provides the IC50 values of various substituted heterocyclic compounds disclosed herein.
For orientation: TR-FRET usually uses a lanthanide donor and a delayed reading to cut background.

Take `COc1nc(N2CCC(N)CC2)nc(-c2ccc(C#N)c(F)c2)c1-c1ccc2cn(C)nc2c1` [Example 150, 4-[2-(4-aminopiperidin-1-yl)-6-methoxy-5-(2-methyl-2H-indazol-6-yl)pyrimidin-4-yl]-2-fluorobenzonitrile]: the IC50 with THP-1 (AML) cells and at full-length human LSD1 was less than 100 nM each time.

In the case of `COc1nc(N2CCC(N)CC2)nc(-c2ccc(C#N)c(F)c2)c1-c1ccc2c(c1)nnn2C` [Example 151, 4-[2-(4-aminopiperidin-1-yl)-6-methoxy-5-(1-methyl-1H-1,2,3-benzotriazol-5-yl)pyrimidin-4-yl]-2-fluorobenzonitrile], the IC50 in the experiment on THP-1 (AML) cells and at full-length human LSD1 was less than 100 nM throughout.

On to `COc1nc(N2CCC(N)CC2)nc(-c2ccc(C#N)cc2)c1-c1ccc2nn(C)cc2c1` [Example 152, 4-[2-(4-aminopiperidin-1-yl)-6-methoxy-5-(2-methyl-2H-indazol-5-yl)pyrimidin-4-yl]benzonitrile], for which the IC50 with THP-1 (AML) cells and on full-length human LSD1 was less than 100 nM each time.

In the case of `COc1nc(N2CCC(N)CC2)nc(-c2ccc(C#N)cc2)c1-c1cnn(CC(F)(F)F)c1` [Example 153, 4-[2-(4-aminopiperidin-1-yl)-6-methoxy-5-[1-(2,2,2-trifluoroethyl)-1H-pyrazol-4-yl]pyrimidin-4-yl]benzonitrile], the IC50 in the experiment on THP-1 (AML) cells and at full-length human LSD1 was less than 100 nM throughout.

On to `COc1nc(N2CCC(N)CC2)nc(-c2ccc(C#N)cc2)c1-c1ccc2c(c1)nnn2C` [Example 154, 4-[2-(4-aminopiperidin-1-yl)-6-methoxy-5-(1-methyl-1H-1,2,3-benzotriazol-5-yl)pyrimidin-4-yl]benzonitrile], for which the IC50 with THP-1 (AML) cells and on full-length human LSD1 was less than 100 nM throughout.

Consider `COc1nc(N2CCC(N)CC2)nc(-c2ccc(C#N)cc2)c1-c1ccc(N(C)C)nc1` [Example 155, 4-[2-(4-aminopiperidin-1-yl)-5-[6-(dimethylamino)pyridin-3-yl]-6-methoxypyrimidin-4-yl]benzonitrile], for which the IC50 in the experiment on THP-1 (AML) cells and at full-length human LSD1 was less than 100 nM each time.

On to `COc1nc(N2CCC(N)CC2)nc(-c2ccc(C#N)cc2)c1-c1cnc(N(C)C)nc1` [Example 156, 4-[2-(4-aminopiperidin-1-yl)-5-[2-(dimethylamino)pyrimidin-5-yl]-6-methoxypyrimidin-4-yl]benzonitrile], for which the IC50 with THP-1 (AML) cells and at full-length human LSD1 was less than 100 nM throughout.

With `COc1nc(N2CCC(N)CC2)nc(-c2ccc(C#N)c(F)c2)c1-c1cnc2c(c1)nnn2C` [Example 157, 4-[2-(4-aminopiperidin-1-yl)-6-methoxy-5-{3-methyl-3H-[1,2,3]triazolo[4,5-b]pyridin-6-yl}pyrimidin-4-yl]-2-fluorobenzonitrile], the IC50 in the experiment on THP-1 (AML) cells and on full-length human LSD1 was less than 100 nM throughout.

Consider `COc1nc(N2CCC(N)CC2)nc(-c2ccc(C#N)cc2)c1-c1cnc2c(c1)nnn2C` [Example 158, 4-[2-(4-aminopiperidin-1-yl)-6-methoxy-5-{3-methyl-3H-[1,2,3]triazolo[4,5-b]pyridin-6-yl}pyrimidin-4-yl]benzonitrile], for which the IC50 in the experiment with THP-1 (AML) cells and at full-length human LSD1 was less than 100 nM throughout.

Turning to `COc1nc(N2CCC(N)CC2)nc(-c2ccc(C#N)c(F)c2)c1-c1cnc2c(cnn2C)c1` [Example 159, 4-[2-(4-aminopiperidin-1-yl)-6-methoxy-5-{1-methyl-1H-pyrazolo[3,4-b]pyridin-5-yl}pyrimidin-4-yl]-2-fluorobenzonitrile], the IC50 with THP-1 (AML) cells and at full-length human LSD1 was less than 100 nM each time.

Consider `CNc1nc(N2CCC(N)CC2)nc(-c2ccc(C#N)c(F)c2)c1-c1ccc2nn(C)cc2c1` [Example 160, 4-[2-(4-aminopiperidin-1-yl)-5-(2-methyl-2H-indazol-5-yl)-6-(methylamino)-pyrimidin-4-yl]-2-fluorobenzonitrile], for which the IC50 in the experiment with THP-1 (AML) cells and at full-length human LSD1 was less than 100 nM in each case.

On to `CNc1nc(N2CCC(N)CC2)nc(-c2ccc(C#N)c(F)c2)c1-c1ccc2c(cnn2C)c1` [Example 161, 4-[2-(4-aminopiperidin-1-yl)-5-(l-methyl-1H-indazol-5-yl)-6-(methylamino)pyrimidin-4-yl]-2-fluorobenzonitrile], for which the IC50 with THP-1 (AML) cells and at full-length human LSD1 was less than 100 nM each time.

Consider `CNc1nc(N2CCCNCC2)nc(-c2ccc(C#N)c(F)c2)c1-c1ccc2nn(C)cc2c1` [Example 162, 4-[2-(1,4-diazepan-1-yl)-5-(2-methyl-2H-indazol-5-yl)-6-(methylamino)pyrimidin-4-yl]-2-fluorobenzonitrile], for which the IC50 with THP-1 (AML) cells and at full-length human LSD1 was less than 100 nM each time.

On to `CNc1nc(N2CCC(N)CC2)nc(-c2ccc(C#N)cc2)c1-c1ccc2nn(C)cc2c1` [Example 163, 4-[2-(4-aminopiperidin-1-yl)-5-(2-methyl-2H-indazol-5-yl)-6-(methylamino)-pyrimidin-4-yl]-benzonitrile], for which the IC50 with THP-1 (AML) cells and on full-length human LSD1 was less than 100 nM in each case.

Consider `CNc1nc(N2CCC(N)CC2)nc(-c2ccc(C#N)cc2)c1-c1ccc2c(cnn2C)c1` [Example 164, 4-[2-(4-aminopiperidin-1-yl)-5-(1-methyl-1H-indazol-5-yl)-6-(methylamino)pyrimidin-4-yl]benzonitrile], for which the half-maximal inhibitory concentration (IC50) in the experiment with THP-1 (AML) cells and at full-length human LSD1 was less than 100 nM in each case.

As for `CNc1nc(N2CCC(N)CC2)nc(-c2ccc(C#N)c(F)c2)c1-c1ccc2c(c1)nnn2C` [Example 165, 4-[2-(4-aminopiperidin-1-yl)-5-(1-methyl-1H-1,2,3-benzotriazol-5-yl)-6-(methylamino)pyrimidin-4-yl]-2-fluorobenzonitrile], the IC50 in the experiment on THP-1 (AML) cells and at full-length human LSD1 was less than 100 nM in each case.

For `CCNc1nc(N2CCC(N)CC2)nc(-c2ccc(C#N)c(F)c2)c1-c1ccc2nn(C)cc2c1` [Example 166, 4-[2-(4-aminopiperidin-1-yl)-6-(ethylamino)-5-(2-methyl-2H-indazol-5-yl)-pyrimidin-4-yl]-2-fluorobenzonitrile], the IC50 in the experiment on THP-1 (AML) cells and at full-length human LSD1 was less than 100 nM in each case.

In the case of `CNc1nc(N2CCC(N)CC2)nc(-c2ccc(C#N)c(F)c2)c1-c1cnn(CC(F)(F)F)c1` [Example 167, 4-[2-(4-aminopiperidin-1-yl)-6-(methylamino)-5-[1-(2,2,2-trifluoroethyl)-1H-pyrazol-4-yl]pyrimidin-4-yl]-2-fluorobenzonitrile], the IC50 in the experiment on THP-1 (AML) cells and on full-length human LSD1 was less than 100 nM each time.

As for `CNc1nc(N2CCC(N)CC2)nc(-c2ccc(C#N)c(F)c2)c1-c1cnc(N(C)C)nc1` [Example 168, 4-[2-(4-aminopiperidin-1-yl)-5-[2-(dimethylamino)pyrimidin-5-yl]-6-(methylamino)pyrimidin-4-yl]-2-fluorobenzonitrile], the IC50 in the experiment on THP-1 (AML) cells and on full-length human LSD1 was less than 100 nM each time.

`CNc1nc(N2CCC(N)CC2)nc(-c2ccc(C#N)c(F)c2)c1-c1ccc(N(C)C)nc1` [Example 169, 4-[2-(4-aminopiperidin-1-yl)-5-[6-(dimethylamino)pyridin-3-yl]-6-(methylamino)pyrimidin-4-yl]-2-fluorobenzonitrile]: the IC50 with THP-1 (AML) cells and at full-length human LSD1 was less than 100 nM each time.

Consider `CNc1nc(N2CCC(N)CC2)nc(-c2ccc(C#N)cc2)c1-c1ccc2c(c1)nnn2C` [Example 170], for which the IC50 in the experiment on THP-1 (AML) cells and on full-length human LSD1 was less than 100 nM each time.

Usually IC50 stands for the concentration at which inhibition is half-maximal.
